Test system: Fathead Minnow
Conditions: 750 mg/L concentration, 48 hours
Excerpt: CALIFORNIA CODE REGS (“CCR”) Title 22-Fathead Minnow Hazardous Waste Screen Bioassay.

In the case of `OO` [Hydrogen peroxide (5%), Hydrogen peroxide], the survival is reported as 0%.
